According to paper PMC8466781, “Evaluation of Synthetic 2,4-Disubstituted-benzo[g]quinoxaline Derivatives as Potential Anticancer Agents” (Pharmaceuticals, 2021):

Legend:
[1] = test system: breast MCF-7 cancer cell line; experiment: MTT cytotoxicity assay against breast MCF-7 cancer cell line; format: cell-based; details: Homo sapiens, MCF7, 24 h treatment, mean ± SD, n = 3 experiments, read-out: IC50 (μM) MCF-7, in vitro cytotoxic activity
Method: The effect of the prepared benzo[g]quinoxaline derivatives 2–9 on the viability of breast MCF-7 cancer cell line was studied using MTT assay. The cytotoxicity was assessed using Dox as positive reference drug.
Antitumor activity of the newly prepared benzo[g]quinoxaline derivatives 2–9 were carried out against breast MCF-7 cancer cell line using MTT assay method. Cells at density of 1 × 10^4 were seeded in 96-well plate at 37 °C for 48 h under 5% CO2. After incubation, the cells were treated with different concentration of the prepared molecules and incubated for 24 h. MTT dye was added at the end of 24 h of drug treatment and incubated for 4 h at 37 °C. 100 µL of dimethyl sulphoxide was added to each well to dissolve the purple formazan formed. The color intensity of the formazan product, which represents the growth condition of the cells, was quantified using an ELISA plate reader at 570 nm. The experimental conditions were carried out with at least three replicates and the experiments were repeated at least three times.

[2] = test system: Bcl2; experiment: ELISA measurement of Bcl2 level in MCF-7 cells; format: cell-based; details: MCF-7 cells treated at IC50 (2.89 µM)
Method: (§1) In order to investigate the molecular pathway involved in apoptosis, compound 3 was screened for its ability to activate pro-apoptotic protein; Bax and downregulate anti-apoptotic protein; Bcl2 [31]. The MCF-7 cancer cell line was treated with compound 3 at its IC50 value (µM) and the level of expression of proteins involved in apoptosis was quantized using ELISA assay. […] Therefore, it can be concluded that compound 3 can induce the intrinsic pathway of apoptosis by activation of Bax and downregulation of Bcl2.
(§2) The levels of the apoptotic marker Bax, Bcl-2, and Fas/Fas-l were assessed using ELISA kit. The procedure of the used kits was completed according to the manufacturer’s instructions. Briefly, cell lysates were prepared from control and MCF-7 cells (2.5 × 10^5) treated with IC50 concentration of compound 3. Then, equal amounts of cell lysates were loaded then probed with specific antibodies. The samples were measured at 450 nm in ROBONEK P2000 ELISA reader. All experiments were performed in duplicate.
(§3) Figure 6 Effect of compound 3 on apoptosis related proteins, Bax, Bcl2, and Fas/Fas-L in MCF-7 cells. […] Data was expressed as mean ± SD (n = 3 experiments) and statistical comparisons were carried out using one-way analysis of variance (ANOVA) followed by Tukey’s multiple comparison test (*** p < 0.001).

[3] = test system: Bax; experiment: ELISA measurement of Bax level in MCF-7 cells; format: cell-based; details: MCF-7 cells treated at IC50 (2.89 µM)
Method: as §1, §2, §3

[4] = test system: MCF-7 cells; experiment: Cell cycle analysis by DNA flow cytometry (PI staining); format: cell-based; details: MCF-7, compound at IC50 (2.89 µM), 48 h; untreated control 2.41%
Method: Compound 3 was tested at its IC50 concentration dose value.
MCF-7 cells (2 × 10^5/well) were harvested and washed twice in PBS. After that, cells were incubated at 37 °C and 5% CO2. The medium was replaced with (DMSO 1% v/v) containing the tested compound, then incubated for 48 h, washed twice in PBS, fixed with 70% ethanol, rinsed again with PBS, and then stained with DNA fluorochrome PI for 15 min at 37 °C. DNA content was analyzed by flow cytometry on a FACS Calibur flow cytometer (Becton and Dickinson, Heidelberg, Germany).
Figure 4 (A) Graphical representation of percentages of cells in pre-G1, G1, G2/M, and S cell cycle phase in MCF-7 cells treated with compound 3 (2.89 µM) for 48 h. (B) Effect of compound 3 (2.89 µM) on cell cycle distribution in MCF-7 cells for 48 h and analyzed by flow cytometry after staining with DNA fluorochrome propidium iodide; most of the compound 3 treated cells were in pre-G1 phase (apoptosis). Data are expressed as the mean ± SD (n = 3 experiments) and statistical comparisons were carried out using one-way analysis of variance (ANOVA) followed by Tukey’s multiple comparison test (*** p < 0.001). ***-Highly significant. […]

[5] = test system: MCF-7 cells; experiment: Annexin V-FITC/PI apoptosis staining assay (flow cytometry); format: cell-based; details: MCF-7, compound at IC50 concentration, 48 h
Method: Apoptosis staining assay was performed to detect the effect of compound 3 on the percentage of early and late apoptosis in the breast MCF-7 cancer cell line. […] Therefore, compound 3 can be considered an apoptosis inducer in the breast MCF-7 cell line.
Apoptosis in MCF-7 cells was investigated using fluorescent Annexin V-FITC/PI detection kit by flow cytometry assay. Briefly, MCF-7 cells (2 × 10^5) after incubation for 12 h. Cells were treated with compound 3 at its IC50 concentration for 48 h, then the cells were harvested and stained with Annexin V-FITC/PI dye for 15 min in the dark at 37 °C. Flow cytometry analyses were performed using FACS Calibur flow cytometer (Becton and Dickinson, Heidelberg, Germany).
Figure 5 (A) Graphical representation of the effect of compound 3 on induction of apoptosis in MCF-7 cell line. (B) Effect of compound 3 on induction of apoptosis in MCF-7 cell line. Data are expressed as the mean ± SD (n = 3 experiments) and statistical comparisons were carried out using one-way analysis of variance (ANOVA) followed by Tukey’s multiple comparison test (** p < 0.01, and *** p < 0.001). […] The Comp 3 values are given in the order upper left, upper right, lower right, with no measure name. / The Control MCF-7 plot prints 1.51%, 0.13% and 0.77%. These are left out because the untreated control is not a substance.

[6] = target: T1, topoisomerase IIβ (Homo sapiens, UniProt Q02880); experiment: Topoisomerase IIβ enzyme inhibition assay (Human DNA topo IIβ ELISA Kit # MBS942146); format: biochemical
T1 construct: purchased MBS942146
T1 sequence (Q02880 whole entry): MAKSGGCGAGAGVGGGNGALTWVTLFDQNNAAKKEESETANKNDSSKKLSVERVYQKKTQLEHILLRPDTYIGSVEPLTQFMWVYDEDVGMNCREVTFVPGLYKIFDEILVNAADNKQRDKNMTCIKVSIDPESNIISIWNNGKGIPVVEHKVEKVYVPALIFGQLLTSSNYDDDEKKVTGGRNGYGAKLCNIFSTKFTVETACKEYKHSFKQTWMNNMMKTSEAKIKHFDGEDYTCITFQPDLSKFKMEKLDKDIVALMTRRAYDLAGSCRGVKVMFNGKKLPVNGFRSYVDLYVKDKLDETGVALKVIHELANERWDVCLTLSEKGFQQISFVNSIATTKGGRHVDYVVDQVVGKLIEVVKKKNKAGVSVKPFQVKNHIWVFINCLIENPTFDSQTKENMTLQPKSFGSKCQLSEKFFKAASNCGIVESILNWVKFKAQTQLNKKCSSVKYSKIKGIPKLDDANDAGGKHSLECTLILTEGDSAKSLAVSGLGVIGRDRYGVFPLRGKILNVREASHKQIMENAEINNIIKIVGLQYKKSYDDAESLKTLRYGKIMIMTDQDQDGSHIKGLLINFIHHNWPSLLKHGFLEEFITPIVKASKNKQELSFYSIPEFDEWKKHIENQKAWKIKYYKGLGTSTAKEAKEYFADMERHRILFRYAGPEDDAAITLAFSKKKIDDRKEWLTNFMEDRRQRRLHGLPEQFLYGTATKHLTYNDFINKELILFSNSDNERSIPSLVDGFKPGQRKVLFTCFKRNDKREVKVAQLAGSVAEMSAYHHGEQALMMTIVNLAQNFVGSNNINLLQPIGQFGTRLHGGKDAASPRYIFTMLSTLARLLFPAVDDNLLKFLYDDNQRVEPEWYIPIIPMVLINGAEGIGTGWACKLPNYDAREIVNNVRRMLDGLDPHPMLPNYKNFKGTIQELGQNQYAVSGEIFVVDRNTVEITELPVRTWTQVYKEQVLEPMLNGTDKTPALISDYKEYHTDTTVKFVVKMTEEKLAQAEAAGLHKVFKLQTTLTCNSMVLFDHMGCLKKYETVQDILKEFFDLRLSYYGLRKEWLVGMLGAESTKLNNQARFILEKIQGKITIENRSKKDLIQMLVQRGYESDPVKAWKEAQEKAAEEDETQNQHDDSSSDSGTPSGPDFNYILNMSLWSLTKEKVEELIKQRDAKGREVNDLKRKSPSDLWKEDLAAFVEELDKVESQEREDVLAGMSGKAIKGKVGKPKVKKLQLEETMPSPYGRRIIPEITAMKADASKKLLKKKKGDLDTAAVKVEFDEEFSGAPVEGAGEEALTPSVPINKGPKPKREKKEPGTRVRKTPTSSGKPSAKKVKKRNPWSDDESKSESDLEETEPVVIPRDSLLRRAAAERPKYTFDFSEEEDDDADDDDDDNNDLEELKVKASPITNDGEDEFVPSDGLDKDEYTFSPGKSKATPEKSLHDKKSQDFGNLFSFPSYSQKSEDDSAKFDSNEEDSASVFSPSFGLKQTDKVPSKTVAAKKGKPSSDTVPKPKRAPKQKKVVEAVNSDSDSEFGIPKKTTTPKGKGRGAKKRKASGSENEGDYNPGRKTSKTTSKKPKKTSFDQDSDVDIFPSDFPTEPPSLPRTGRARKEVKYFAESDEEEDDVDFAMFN
Method: To obtain a further insight into the mechanism of cell proliferation inhibition activity, benzo[g]quinoxaline molecule 3 was investigated for topoisomerase IIβ (topo IIβ) inhibitory activity using the Human DNA topo IIβ ELISA Kit # MBS942146.
Compound 3 and Dox were evaluated against topoisomerase IIβ for their inhibitory concentration (µM) using four doses concentration according to manufacturer’s instructions.
Figure 3 Graphical representation for comparison of topo IIβ IC50 of compound 3 and Dox; topo II was performed using four doses protocol for compound 3 and Dox, and the concentration that induced 50% maximum inhibition of topo II was determined from sigmoidal dose–response. Data are expressed as the mean ± SD (n = 3 experiments) and statistical comparisons were carried out using one-way analysis of variance (ANOVA) followed by Tukey’s multiple comparison test (** p < 0.01). **-Significant.

SMILES | IC50 [1] [µM] | melting point [°C] | other results
Clc1ccc(C2=Nc3cc4ccccc4cc3NC2)cc1 [Compound 2, 3-(4-Chlorophenyl)-1,2-dihydrobenzo[g]quinoxaline] | 17.2 ± 0.69 | 195 to 197 | –
Nc1c(NCC(=O)c2ccc(Cl)cc2)c(Br)c2ccccc2c1Br [Compound 8, 2-(3-Amino-1,4-dibromonaphthalen-2-ylamino)-1-(4-chlorophenyl)ethanone] | – | 225 to 227 | –
Clc1ccc(-c2cnc3cc4ccccc4cc3n2)cc1 [Compound 3, 2-(4-Chlorophenyl)benzo[g]quinoxaline] | 2.89 ± 0.11 | 168 to 170 | downregulation of Bcl2 compared with untreated control [2]: 4.35 fold; increase of Bax expression compared with untreated control [3]: 3.89 fold; percentage of cells at the pre-G1 phase [4]: 38.24%; apoptosis percentage at late stage (upper right quadrant) ([5]; untreated control 0.13%): 21.38%; apoptosis percentage at the early stage (lower right quadrant) ([5]; untreated control 0.77%): 1.59%
COc1cccc2c1C(=O)c1c(O)c3c(c(O)c1C2=O)C[C@@](O)(C(=O)CO)C[C@@H]3O[C@H]1C[C@H](N)[C@H](O)[C@H](C)O1 [Dox, Doxorubicin, reference compound] | 2.01 ± 0.01 | – | IC50 [6]: 3.31 µM
CC(=O)N1C=C(c2ccc(Cl)cc2)Nc2cc3ccccc3cc21 [Compound 4, 1-(3-(4-Chlorophenyl)benzo[g]quinoxalin-1(4H)-yl)ethanone] | 16.2 ± 0.58 | 171 to 173 | –
CCOC(=O)C(C#N)=C(c1ccc(O)c(OC)c1)N1C=C(c2ccc(Cl)cc2)Nc2cc3ccccc3cc21 [Compound 5, Ethyl 3-(3-(4-Chlorophenyl)benzo[g]quinoxalin-1(4H)-yl)-2-cyano-3-(4-hydroxy-3-methoxyphenyl)acrylate] | 32.1 ± 1.11 | 146 to 148 | –
CC(=O)N1CC(c2ccc(Cl)cc2)=Nc2c1c(Br)c1ccccc1c2Br [Compound 9, 1-(5,10-Dibromo-3-(4-chlorophenyl)benzo[g]quinoxalin-1(2H)-yl)ethanone] | 8.84 ± 0.36 | 205 to 207 | –
